The subject of one experiment is HDAC1. The following applies: read-out: HDAC1 IC50; Sandrone et al., different substrates; ref [47]; cited from earlier work.
Another experiment relates to HDAC6. The note with it: ref [47], cited from earlier work; for IC50: read-out: HDAC6 IC50, Sandrone et al., different substrates; for SI (IC50 (HDAC1)/IC50 (HDAC6)): selectivity index HDAC1/6, Sandrone et al.
In another experiment the target is T1, human HDAC6 (Homo sapiens, UniProt Q9UBN7).
T1 sequence (Q9UBN7 1-1215): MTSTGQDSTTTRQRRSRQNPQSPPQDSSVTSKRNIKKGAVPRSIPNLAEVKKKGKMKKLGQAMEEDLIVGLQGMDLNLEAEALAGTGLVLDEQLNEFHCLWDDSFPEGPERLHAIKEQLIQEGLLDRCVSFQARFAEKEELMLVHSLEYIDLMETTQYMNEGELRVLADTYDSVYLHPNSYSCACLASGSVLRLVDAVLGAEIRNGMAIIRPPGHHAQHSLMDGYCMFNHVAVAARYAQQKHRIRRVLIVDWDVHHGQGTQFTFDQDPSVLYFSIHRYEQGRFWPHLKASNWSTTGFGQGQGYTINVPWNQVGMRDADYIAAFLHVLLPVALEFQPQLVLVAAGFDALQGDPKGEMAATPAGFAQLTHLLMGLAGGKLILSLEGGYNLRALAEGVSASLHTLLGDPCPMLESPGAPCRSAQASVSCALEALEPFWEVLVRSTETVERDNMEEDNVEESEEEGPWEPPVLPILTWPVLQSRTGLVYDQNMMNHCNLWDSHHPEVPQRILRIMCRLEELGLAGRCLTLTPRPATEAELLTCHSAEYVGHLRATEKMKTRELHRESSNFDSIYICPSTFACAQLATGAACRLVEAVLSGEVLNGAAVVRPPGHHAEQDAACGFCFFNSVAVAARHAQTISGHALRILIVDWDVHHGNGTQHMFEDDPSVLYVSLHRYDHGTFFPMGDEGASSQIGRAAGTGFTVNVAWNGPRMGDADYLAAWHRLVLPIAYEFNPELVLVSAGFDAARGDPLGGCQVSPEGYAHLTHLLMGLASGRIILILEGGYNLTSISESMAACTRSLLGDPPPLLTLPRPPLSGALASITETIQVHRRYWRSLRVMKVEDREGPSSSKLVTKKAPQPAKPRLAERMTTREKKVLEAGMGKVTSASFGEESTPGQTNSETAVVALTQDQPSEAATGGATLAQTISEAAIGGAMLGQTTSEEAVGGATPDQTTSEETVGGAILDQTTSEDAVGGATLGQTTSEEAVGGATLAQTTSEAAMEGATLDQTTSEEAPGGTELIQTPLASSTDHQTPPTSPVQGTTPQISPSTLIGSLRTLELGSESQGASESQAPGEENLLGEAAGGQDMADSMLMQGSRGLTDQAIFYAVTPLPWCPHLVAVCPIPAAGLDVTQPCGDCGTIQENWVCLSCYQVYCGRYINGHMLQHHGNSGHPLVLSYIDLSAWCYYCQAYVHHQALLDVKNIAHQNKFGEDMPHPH
Nature of the experiment: HDAC6 inhibition assay. Type of experiment: biochemical. The note with it: selectivity index HDAC1/6.

In a further experiment the test system is HL60. The experiment is described as follows: Combinatorial drug screening with decitabine, HL60. Type of experiment: cell-based. The note with it: combination with decitabine, HL60, 72 h co-treatment.
Another experiment deals with HAL01. The experiment is described as follows: Combinatorial drug screening with decitabine, HAL01. Type of experiment: cell-based. The following applies: combination with decitabine, HAL01, 72 h co-treatment.
Experiment [1] deals with HL60 cells. The experiment is described as follows: Annexin V / PI apoptosis assay. Type of experiment: cell-based. The note with it: 1 μM or 5 μM, 48 h, annexin V and propidium iodide, flow cytometry. Background: In flow cytometry, cells or beads pass a laser one at a time.
The test system of experiment [2] is HL60 cells. Nature of the experiment: Immunoblotting of acetyl-α-tubulin and acetyl-histone H3. Type of experiment: cell-based. The note with it: 24 h; for acetylation of histone 3 (Ac-H3) / acetylation of α-tubulin: IC12.5-IC75 concentrations (ricolinostat at its IC50).
The test system of another experiment is MOLM13. Nature of the experiment: Combinatorial drug screening with decitabine, MOLM13. Type of experiment: cell-based. The note with it: combination with decitabine, MOLM13, 72 h co-treatment.
The next experiment concerns Jurkat. The experiment is described as follows: Combinatorial drug screening with decitabine, Jurkat. The note with it: combination with decitabine, 72 h co-treatment. Type of experiment: cell-based.
In the next experiment the test system is leukemia cell lines. Type of experiment: cell-based. The note with it: broad range of leukemia cell lines from therapy refractory subgroups; two healthy human fibroblast controls; values in Supplementary Table S1.
The target of another experiment is HDAC4 (Homo sapiens, UniProt P56524). The experiment is described as follows: HDAC4 inhibition assay. Type of experiment: biochemical.
Chain of HDAC4 (P56524 627-1084 limits assumed): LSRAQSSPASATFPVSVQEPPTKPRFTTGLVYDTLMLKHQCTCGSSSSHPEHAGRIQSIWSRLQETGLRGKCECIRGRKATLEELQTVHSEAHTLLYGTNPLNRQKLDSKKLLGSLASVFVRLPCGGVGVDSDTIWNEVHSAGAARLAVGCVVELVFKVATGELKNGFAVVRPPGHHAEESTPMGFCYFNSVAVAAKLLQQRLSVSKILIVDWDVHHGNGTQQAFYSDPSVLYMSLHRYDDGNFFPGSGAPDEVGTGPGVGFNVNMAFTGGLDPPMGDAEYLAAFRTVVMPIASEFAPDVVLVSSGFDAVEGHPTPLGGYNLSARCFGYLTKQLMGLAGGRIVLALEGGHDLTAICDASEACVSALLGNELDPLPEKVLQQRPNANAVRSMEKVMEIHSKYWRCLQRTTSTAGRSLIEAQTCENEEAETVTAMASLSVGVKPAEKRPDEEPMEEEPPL

Results on seven molecules are retold here after article PMC9691607 (Journal of medicinal chemistry, 2022).

Usually IC50 stands for the midpoint of a concentration-inhibition curve.

Molecules are shown by their SMILES.

As for `O=C(NO)c1cccc(F)c1` [3-fluoro-N-hydroxybenzamide], the IC50 in the experiment on HDAC1 was 29400 nM; in the experiment on HDAC6, 453 nM. Besides, the “SI (IC50 (HDAC1)/IC50 (HDAC6))” value in the experiment with HDAC6 is given as 65.
Regarding `Cc1cc(C)cc(C(=O)N(CC(=O)NCc2ccccc2)Cc2ccc(C(=O)NO)cc2F)c1` [Compound 10g, 4-({N-[(Benzylcarbamoyl)methyl]-1-(3,5-dimethylphenyl)formamido}methyl)-3-fluoro-N-hydroxybenzamide], the “SI (IC50 (HDAC1)/IC50 (HDAC6))” value on human HDAC6 is 6–24.
Turning to `CN(C)c1ccc(C(=O)N(CC(=O)NCc2ccccc2)Cc2ccc(C(=O)NO)cc2F)cc1` [Compound 10h, 4-({N-[(Benzylcarbamoyl)methyl]-1-[4-(dimethylamino)phenyl]formamido}methyl)-3-fluoro-N-hydroxybenzamide], the ZIP synergy score in the experiment with HL60 is given as 25.08; with HAL01, 1.18; with MOLM13, 27.44; in the experiment on Jurkat, −0.87. The induction of apoptosis entry with HL60 cells [1] is given as “significant (p < 0.0001) increase in apoptotic cells”. For the same molecule, the “acetylation of histone 3 (Ac-H3)” value with HL60 cells [2] is “dose-dependent increase”. The “acetylation of α-tubulin” value in the experiment with HL60 cells [2] is on record as “dose-dependent increase”. Also, the “acetylation of H3 on co-administration with decitabine” value in the experiment with HL60 cells [2] (combination with decitabine vs mono-treatment) was “strong induction of acetylation of H3 as compared to mono-treatment”. In the experiment on leukemia cell lines, the “cellular viability of leukemia cell lines” value is “markedly outperformed CI994 and ricolinostat”.
For `CC(C)c1ccccc1C(=O)N(CC(=O)NC(C)(C)C)Cc1ccc(C(=O)NO)cc1F` [Compound 10p, 4-({N-[(tert-Butylcarbamoyl)methyl]-1-[2-(propan-2-yl)phenyl]formamido}methyl)-3-fluoro-N-hydroxybenzamide], the results for the ZIP synergy score in the experiment with HL60 and in the experiment with MOLM13 were 7.78 and 7.18, respectively. Also, the induction of apoptosis entry in the experiment on HL60 cells [1] is listed as “weaker (in comparison to 10h) although significant (p < 0.05) apoptosis induction”. Also, the “acetylation of histone 3 (Ac-H3)” value in the experiment on HL60 cells [2] was “no effect on Ac-H3 levels”. Besides, the “acetylation of α-tubulin” value with HL60 cells [2] is given as “induced acetylation of α-tubulin”. Also, the “cellular viability of leukemia cell lines” value in the experiment on leukemia cell lines is “IC50 values ranging in the high micromolar concentration”.
At HDAC4, `CN(C)c1ccc(C(=O)N(CC(=O)NCc2ccccc2)Cc2ccc(C(=O)NO)cc2)cc1` [DDK137] had an IC50 of 2670 nM.
For the molecule `O=C(NO)c1ccccc1` [N-hydroxybenzamide], the concentration for half-maximal inhibition (IC50) with HDAC1 was 25400 nM. Besides, in the experiment with HDAC6, the IC50 was 1340 nM and the “SI (IC50 (HDAC1)/IC50 (HDAC6))” value is 19.
In the case of `O=C(CCCCCCNC(=O)c1cnc(N(c2ccccc2)c2ccccc2)nc1)NO` [Ricolinostat, ricolinostat, reference compound], in the experiment on HL60 cells [2], the “acetylation of histone 3 (Ac-H3)” value was “lower Ac-H3 levels than observed for 10h” and the “acetylation of α-tubulin” value is recorded as “prominent acetylation of α-tubulin”.
